These results are taken from US6340680B1, “Oxazinoquinolones useful for the treatment of viral infections” (Pharmacia and Upjohn Company, priority 1999, dated 2002).

Assay type in all cases: biochemical
One assay concerns the target T1, HCMV polymerase (Human cytomegalovirus, UniProt P08546).
T1 construct: made in house; host or cells: recombinant baculovirus-infected SF-9 cells
The experiment in a line: HCMV polymerase assay (scintillation proximity assay, modified version). Particulars: modified SPA assay, compounds diluted in 100% DMSO, 4.5 mM DTT. The method, then: (§1) The HCMV polymerase assay is performed using a scintillation proximity assay (SPA) as described in several references, such as N. D. Cook, et al., Pharmaceutical Manufacturing International, pages 49-53 (1992); K. Takeuchi, Laboratory Practice, September issue (1992); U.S. Pat. No. 4,568,649 (1986); which are incorporated by reference herein. Reactions are performed in 96-well plates. The assay is conducted in 100 μl volume with 5.4 mM HEPES (pH 7.5), 11.7 mM KCl, 4.5 mM MgCl2, 0.36 mg/ml BSA, and 90 nM ^3H-dTTP. Assays are run with and without CHAPS, (3-[(3-Cholamidopropyl)-dimethylammonio]-1-propane-sulfonate) at a final concentration of 2 mM. HCMV polymerase is diluted in enzyme dilution buffer containing 50% glycerol, 250 mM NaCl, 10 mM HEPES (pH 7.5), 100 μg/ml BSA, and 0.01% sodium azide. The HCMV polymerase, which is expressed in recombinant baculovirus-infected SF-9 cells and purified according to literature procedures, is added at 10% (or 10 μl) of the final reaction volume, i.e., 100 μl. Compounds are diluted in 50% DMSO and 10 μl are added to each well. Control wells contain an equivalent concentration of DMSO. Unless noted otherwise, reactions are initiated via the addition of 6 nM biotinylated poly(dA)-oligo(dT) template/primer to reaction mixtures containing the enzyme, substrate, and compounds of interest. Plates are incubated in a 25 C or 37 C H2O bath and terminated via the addition of 40 μl/reaction of 0.5 M EDTA (pH 8) per well. Reactions are terminated within the time-frame during which substrate incorporation is linear and varied depending upon the enzyme and conditions used, i.e., 30 min. for HCMV polymerase. Ten μl of streptavidin-SPA beads (20 mg/ml in PBS/10% glycerol) are added following termination of the reaction. Plates are incubated 10 min. at 37 C, then equilibrated to room temperature, and counted on a Packard Topcount. Linear regressions are performed and IC50's are calculated using computer software.
A modified version of the above HCMV polymerase assay is performed as described above, but with the following changes: Compounds are diluted in 100% DMSO until final dilution into assay buffer. In the previous assay, compounds are diluted in 50% DMSO. 4.5 mM dithiotherotol (DTT) is added to the polymerase buffer. […] Other viral polymerase assays are performed using procedures similar to those described above.
(SPA uses beads or plates that emit light when radiolabelled molecules are held near them.)

In another assay the target is HSV polymerase (Human herpesvirus 1, UniProt P04293). The experiment in a line: HSV polymerase assay (similar procedure). The method, then:
as §1, with “Unless noted otherwise, reactions are initiated via the addition of 6 nM biotinylated poly(dA)-oligo(dT) template/primer to reaction mixtures containing the enzyme, substrate, and compounds of interest. Plates are incubated in a 25 C or 37 C H2O bath and terminated via the addition of 40 μl/reaction of 0.5 M EDTA (pH 8) per well. Reactions are terminated within the time-frame during which substrate incorporation is linear and varied depending upon the enzyme and conditions used, i.e., 30 min. for HCMV polymerase. Ten μl of streptavidin-SPA beads (20 mg/ml in PBS/10% glycerol) are added following termination of the reaction.” left out, “software. […]” for “software.”

The target in the next assay is VZV polymerase (Varicella-zoster virus, UniProt P09252). The experiment in a line: VZV polymerase assay (similar procedure). How it is done: as §1, with “Unless noted otherwise, reactions are initiated via the addition of 6 nM biotinylated poly(dA)-oligo(dT) template/primer to reaction mixtures containing the enzyme, substrate, and compounds of interest. Plates are incubated in a 25 C or 37 C H2O bath and terminated via the addition of 40 μl/reaction of 0.5 M EDTA (pH 8) per well. Reactions are terminated within the time-frame during which substrate incorporation is linear and varied depending upon the enzyme and conditions used, i.e., 30 min. for HCMV polymerase. Ten μl of streptavidin-SPA beads (20 mg/ml in PBS/10% glycerol) are added following termination of the reaction.” left out, “software. […]” for “software.”
VZV polymerase, sequence (P09252 whole entry): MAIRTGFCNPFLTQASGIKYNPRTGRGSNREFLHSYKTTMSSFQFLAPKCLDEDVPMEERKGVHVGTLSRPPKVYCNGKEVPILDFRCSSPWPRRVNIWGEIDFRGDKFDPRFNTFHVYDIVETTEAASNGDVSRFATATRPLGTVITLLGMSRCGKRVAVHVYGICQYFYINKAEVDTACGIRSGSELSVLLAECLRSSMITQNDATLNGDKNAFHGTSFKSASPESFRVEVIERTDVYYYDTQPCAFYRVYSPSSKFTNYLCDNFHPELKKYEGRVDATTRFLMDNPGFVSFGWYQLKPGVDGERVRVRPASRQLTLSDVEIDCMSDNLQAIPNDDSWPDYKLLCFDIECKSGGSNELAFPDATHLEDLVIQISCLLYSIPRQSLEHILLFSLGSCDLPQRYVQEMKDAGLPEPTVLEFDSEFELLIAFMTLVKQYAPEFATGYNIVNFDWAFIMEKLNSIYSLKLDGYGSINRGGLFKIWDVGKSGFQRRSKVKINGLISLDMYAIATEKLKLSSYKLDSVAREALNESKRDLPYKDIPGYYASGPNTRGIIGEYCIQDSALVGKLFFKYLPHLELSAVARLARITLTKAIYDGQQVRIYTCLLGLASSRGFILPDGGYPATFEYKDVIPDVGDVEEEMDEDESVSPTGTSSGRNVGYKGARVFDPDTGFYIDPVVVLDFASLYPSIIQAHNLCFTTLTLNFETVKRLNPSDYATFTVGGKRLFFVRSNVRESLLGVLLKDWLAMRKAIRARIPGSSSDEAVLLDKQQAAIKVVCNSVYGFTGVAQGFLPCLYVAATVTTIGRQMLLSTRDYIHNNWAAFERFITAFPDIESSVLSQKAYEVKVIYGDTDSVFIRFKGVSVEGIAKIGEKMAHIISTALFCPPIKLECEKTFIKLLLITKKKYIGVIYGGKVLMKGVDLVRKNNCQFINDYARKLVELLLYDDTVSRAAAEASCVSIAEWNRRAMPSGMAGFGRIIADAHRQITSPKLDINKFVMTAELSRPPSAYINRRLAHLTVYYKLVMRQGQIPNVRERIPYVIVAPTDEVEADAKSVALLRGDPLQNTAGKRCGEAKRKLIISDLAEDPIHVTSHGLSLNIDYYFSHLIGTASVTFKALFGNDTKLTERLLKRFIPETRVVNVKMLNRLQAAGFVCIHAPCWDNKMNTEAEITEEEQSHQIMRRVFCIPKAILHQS

pIC50: −log10 of the molar value.

As usually defined, the pIC50 is the negative decadic logarithm of the IC50, by convention in mol/L.

T1 sequence (P08546 whole entry): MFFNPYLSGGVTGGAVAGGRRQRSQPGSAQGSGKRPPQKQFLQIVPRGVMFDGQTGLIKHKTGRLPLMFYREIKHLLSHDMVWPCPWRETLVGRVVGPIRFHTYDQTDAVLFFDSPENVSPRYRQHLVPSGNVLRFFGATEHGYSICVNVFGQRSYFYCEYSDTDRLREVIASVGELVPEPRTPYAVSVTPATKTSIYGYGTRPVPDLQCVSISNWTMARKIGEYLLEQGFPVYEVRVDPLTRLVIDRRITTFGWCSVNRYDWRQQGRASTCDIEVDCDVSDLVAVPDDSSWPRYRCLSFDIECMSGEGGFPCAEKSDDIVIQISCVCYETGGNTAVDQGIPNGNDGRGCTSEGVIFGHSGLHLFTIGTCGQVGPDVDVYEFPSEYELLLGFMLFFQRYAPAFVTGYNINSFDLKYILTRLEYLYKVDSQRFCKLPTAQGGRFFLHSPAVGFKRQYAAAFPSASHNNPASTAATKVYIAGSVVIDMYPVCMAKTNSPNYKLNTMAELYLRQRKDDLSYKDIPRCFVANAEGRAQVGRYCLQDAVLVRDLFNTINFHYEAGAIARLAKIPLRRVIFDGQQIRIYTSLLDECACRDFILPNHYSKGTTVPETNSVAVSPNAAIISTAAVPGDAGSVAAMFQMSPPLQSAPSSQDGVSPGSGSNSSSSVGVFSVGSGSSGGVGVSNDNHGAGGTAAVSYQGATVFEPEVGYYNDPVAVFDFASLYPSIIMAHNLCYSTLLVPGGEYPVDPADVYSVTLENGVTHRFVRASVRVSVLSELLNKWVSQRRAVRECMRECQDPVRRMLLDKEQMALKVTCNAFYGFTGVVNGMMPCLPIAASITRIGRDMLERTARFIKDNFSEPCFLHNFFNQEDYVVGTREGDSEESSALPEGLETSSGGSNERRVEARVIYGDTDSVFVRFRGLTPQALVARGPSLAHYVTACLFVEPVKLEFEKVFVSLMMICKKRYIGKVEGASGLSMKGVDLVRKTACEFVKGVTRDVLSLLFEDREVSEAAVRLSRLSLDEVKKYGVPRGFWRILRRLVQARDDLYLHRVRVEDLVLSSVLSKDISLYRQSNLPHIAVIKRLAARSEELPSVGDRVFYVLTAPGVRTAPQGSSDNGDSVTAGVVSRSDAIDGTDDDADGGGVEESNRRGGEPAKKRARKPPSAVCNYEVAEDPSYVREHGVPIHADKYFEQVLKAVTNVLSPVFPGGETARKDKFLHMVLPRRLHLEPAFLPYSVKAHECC
HSV polymerase, sequence (P04293 whole entry): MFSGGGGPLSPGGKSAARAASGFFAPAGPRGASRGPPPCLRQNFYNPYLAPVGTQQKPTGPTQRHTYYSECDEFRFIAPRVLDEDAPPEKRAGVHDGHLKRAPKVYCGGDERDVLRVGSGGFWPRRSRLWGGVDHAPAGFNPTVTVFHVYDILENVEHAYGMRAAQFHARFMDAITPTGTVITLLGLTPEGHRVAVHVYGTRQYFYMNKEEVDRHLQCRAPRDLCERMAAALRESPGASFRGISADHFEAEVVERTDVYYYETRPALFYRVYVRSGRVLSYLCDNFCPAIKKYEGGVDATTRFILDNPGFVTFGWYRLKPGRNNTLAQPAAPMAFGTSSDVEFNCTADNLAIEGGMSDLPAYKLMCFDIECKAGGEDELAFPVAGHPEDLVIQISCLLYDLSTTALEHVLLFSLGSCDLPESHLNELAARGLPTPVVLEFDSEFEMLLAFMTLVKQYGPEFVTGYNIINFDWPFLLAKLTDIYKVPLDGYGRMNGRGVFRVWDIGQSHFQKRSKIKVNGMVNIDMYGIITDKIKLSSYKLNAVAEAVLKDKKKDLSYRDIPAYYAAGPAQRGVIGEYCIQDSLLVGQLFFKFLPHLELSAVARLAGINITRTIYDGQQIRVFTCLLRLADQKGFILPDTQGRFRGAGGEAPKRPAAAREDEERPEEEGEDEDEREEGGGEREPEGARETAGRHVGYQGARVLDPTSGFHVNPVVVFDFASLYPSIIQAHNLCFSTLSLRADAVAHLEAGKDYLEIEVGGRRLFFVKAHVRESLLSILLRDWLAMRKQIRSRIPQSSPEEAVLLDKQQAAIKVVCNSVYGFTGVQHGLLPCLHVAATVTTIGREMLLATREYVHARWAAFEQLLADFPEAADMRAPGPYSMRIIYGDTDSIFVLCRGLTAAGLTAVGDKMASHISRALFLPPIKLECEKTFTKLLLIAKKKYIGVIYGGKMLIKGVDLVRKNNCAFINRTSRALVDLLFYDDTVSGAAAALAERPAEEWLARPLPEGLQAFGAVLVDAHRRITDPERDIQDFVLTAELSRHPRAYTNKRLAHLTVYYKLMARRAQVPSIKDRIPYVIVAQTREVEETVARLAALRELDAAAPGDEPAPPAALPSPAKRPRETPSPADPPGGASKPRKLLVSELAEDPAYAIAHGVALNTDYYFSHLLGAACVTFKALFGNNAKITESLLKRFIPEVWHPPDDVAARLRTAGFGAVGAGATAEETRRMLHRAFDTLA

On HCMV polymerase, `O=C(NCc1ccc(Cl)cc1)c1cn2c3c(cc(CN4CCOCC4)cc3c1=O)OCC2` [Example 1, N-(4-Chlorobenzyl)-9-(4-morpholinylmethyl)-7-oxo-2,3-dihydro-7H-[1,4]oxazino[2,3,4-ij]quinoline-6-carboxamide] gave a pIC50 of 6.32.

`O=C(NCc1ccc(Cl)cc1)c1cn2c3c(cc(C#CCO)cc3c1=O)OCC2` [Example 2, N-(4-Chlorobenzyl)-9-(3-hydroxy-1-propynyl)-7-oxo-2,3-dihydro-7H-[1,4]oxazino[2,3,4-ij]quinoline-6-carboxamide] gave a pIC50 at HCMV polymerase of 5.92.

For `O=C(NCc1ccc(Cl)cc1)c1cn2c3c(cc(CCCO)cc3c1=O)OCC2` [Example 3A, N-(4-Chlorobenzyl)-9-(3-hydroxypropyl)-7-oxo-2,3-dihydro-7H-[1,4]oxazino[2,3,4-ij]quinoline-6-carboxamide], the values for the pIC50 on HCMV polymerase, at HSV polymerase and against VZV polymerase were over 6.51, 6.36 and 6.68, respectively.

For the molecule `CCCc1cc2c3c(c1)c(=O)c(C(=O)NCc1ccc(Cl)cc1)cn3CCO2` [Example 3B, N-(4-Chlorobenzyl)-7-oxo-9-propyl-2,3-dihydro-7H-[1,4]oxazino[2,3,4-ij]quinoline-6-carboxamide], on HCMV polymerase, the pIC50 was 5.74.
